IC50 data for one compound are collected here from article PMC3488320, “Indirubin derivative E804 inhibits angiogenesis” (BMC Cancer, 2012).

The target in the assay is T1, VEGFR-2 (Homo sapiens, UniProt P35968).
T1 construct: gene KDR
Nature of the assay: HTScan VEGFR-2 kinase assay kit (purified kinase, peptide substrate, pTyr-100 ELISA). The assay is classed as biochemical. On the technique in general: In an ELISA, binding on a coated surface is turned into a signal by an enzyme label.

T1 sequence (P35968 20-1356): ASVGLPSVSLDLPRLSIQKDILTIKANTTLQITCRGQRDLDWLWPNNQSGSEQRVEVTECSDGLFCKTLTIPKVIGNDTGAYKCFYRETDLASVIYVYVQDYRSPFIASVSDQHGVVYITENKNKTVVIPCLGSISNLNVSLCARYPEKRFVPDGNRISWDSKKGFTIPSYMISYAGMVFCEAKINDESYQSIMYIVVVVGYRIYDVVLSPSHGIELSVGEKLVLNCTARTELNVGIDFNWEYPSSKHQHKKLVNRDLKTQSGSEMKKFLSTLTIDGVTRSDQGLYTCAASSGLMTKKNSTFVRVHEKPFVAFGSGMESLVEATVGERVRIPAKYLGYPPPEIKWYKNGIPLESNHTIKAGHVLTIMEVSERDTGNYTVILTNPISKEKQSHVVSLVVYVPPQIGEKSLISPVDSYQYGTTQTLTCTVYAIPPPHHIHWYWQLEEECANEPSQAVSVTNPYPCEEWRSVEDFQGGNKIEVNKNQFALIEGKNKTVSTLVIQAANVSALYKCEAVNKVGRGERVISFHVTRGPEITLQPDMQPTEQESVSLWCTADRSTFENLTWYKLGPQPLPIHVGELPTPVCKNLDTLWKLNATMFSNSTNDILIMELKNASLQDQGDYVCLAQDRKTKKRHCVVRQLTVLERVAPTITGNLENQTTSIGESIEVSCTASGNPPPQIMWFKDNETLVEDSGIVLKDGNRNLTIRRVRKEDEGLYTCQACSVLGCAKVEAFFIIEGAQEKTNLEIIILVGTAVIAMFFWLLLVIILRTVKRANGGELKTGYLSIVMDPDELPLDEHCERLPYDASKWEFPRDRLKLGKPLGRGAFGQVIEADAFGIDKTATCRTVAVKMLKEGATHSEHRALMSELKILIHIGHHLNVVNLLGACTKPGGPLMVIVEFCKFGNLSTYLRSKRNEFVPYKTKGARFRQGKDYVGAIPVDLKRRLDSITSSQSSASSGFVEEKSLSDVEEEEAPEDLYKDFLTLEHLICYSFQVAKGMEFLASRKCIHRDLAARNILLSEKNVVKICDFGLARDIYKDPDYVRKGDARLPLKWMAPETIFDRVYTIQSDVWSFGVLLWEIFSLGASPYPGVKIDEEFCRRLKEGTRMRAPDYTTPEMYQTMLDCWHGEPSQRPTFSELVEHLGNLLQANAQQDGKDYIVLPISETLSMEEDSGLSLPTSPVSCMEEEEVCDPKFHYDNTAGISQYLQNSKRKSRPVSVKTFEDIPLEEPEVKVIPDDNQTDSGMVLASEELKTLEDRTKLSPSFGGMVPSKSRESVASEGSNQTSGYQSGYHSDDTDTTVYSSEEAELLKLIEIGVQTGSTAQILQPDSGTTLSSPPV

In general, IC50 refers to the point on the concentration scale where inhibition reaches its midpoint. Read a high IC50 as weaker potency in that assay. On to `O=C1Nc2ccccc2C1=C1Nc2ccccc2C1=NOCC(O)CO` (stereo not shown) [IDR-E804], for which 950 nM corresponded to half-maximal inhibition (IC50).
